Source: patent EP2752664A1, “Label-free method for the detection of analytes” (priority 2013, dated 2014)
Like-named read-outs stand apart in the source and are kept apart here.

Legend:
[1] = biological target: T1, mannose/Concanavalin A interaction (Canavalia ensiformis, UniProt P02866); experiment: Inhibition competition assay with hydrogel particles, surface energy read out via RICM (SCP-RICM, inventive method); type: binding; conditions: for IC50: read-out: IC50 value determined using an inventive method
[2] = biological target: T1, mannose/Concanavalin A interaction; conditions: SPR measurements reported earlier; PAA Man values normalized per mannose; read-out: IC50 value determined using SPR inhibition assay; cited from earlier work

## CO[C@H]1O[C@H](CO)[C@@H](O)[C@H](O)[C@@H]1O [α-methyl-D-mannose]
[1]; 10 mM analyte added into the measurement cell (critical level of competitive analyte)
  contact areas of functionalized hydrogel particles and surface energies: completely vanish
[1]; analyte at lower concentrations up to 5 mM, particles still in contact with the carrier surface
  surface energy: gradually decreases with the concentration of added analyte
[1]; inverted system: PEG-ConA particles against a mannose functionalized surface (Fig. 7b)
  IC50: 649 ± 76.8 µM
[1]; mannose functionalized hydrogel particles, ConA immobilized on the solid carrier (Fig. 7a), Hill fit of normalized surface energy, PAA Man values normalized per mannose
  IC50: 618 ± 19.1 µM
[2]
  IC50: 750 µM
